Measurements reported in patent publication US12077503B2, “Substituted cyclic amides and their use as herbicides” (FMC CORPORATION, priority 2015, dated 2024).

Tests used:
Format in all cases: in vivo
[1] = system: barnyardgrass (Echinochloa crus-galli); experiment: Test A preemergence; details: Echinochloa crus-galli, pre-emergence, 240 h, Preemergence; for pest or weed control at 31 g/ha: 31 g ai/ha, 0 to 100 scale where 0 is no effect and 100 is complete control, read-out: Barnyardgrass plant response rating; for pest or weed control at 125 g/ha: 125 g ai/ha, 0 to 100 scale (0 no effect, 100 complete control), read-out: Plant response rating, Barnyardgrass
Procedure, shortened: (§1)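 Seeded soil received test chemicals as a preemergence directed spray, and seedlings at one to two leaves, 2–10 cm tall, received them postemergence, in a non-phytotoxic, surfactant-containing solvent mixture. Pots were held in a greenhouse for approximately 10 d, then rated for injury from 0, no effect, to 100, complete control.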

Kochia (Kochia scoparia) [2] = experiment: Test A preemergence; details: Bassia scoparia, pre-emergence, 240 h, Preemergence; for pest or weed control at 31 g/ha: 31 g ai/ha, 0 to 100 scale where 0 is no effect and 100 is complete control, read-out: Kochia plant response rating; for pest or weed control at 125 g/ha: 125 g ai/ha, 0 to 100 scale (0 no effect, 100 complete control), read-out: Plant response rating, Kochia
Procedure, shortened: as §1

[3] = system: giant foxtail (Setaria faberii); experiment: Test A preemergence; details: Setaria faberi, pre-emergence, 240 h, Preemergence; for pest or weed control at 31 g/ha: 31 g ai/ha, 0 to 100 scale where 0 is no effect and 100 is complete control, read-out: Foxtail, Giant plant response rating; for pest or weed control at 125 g/ha: 125 g ai/ha, 0 to 100 scale (0 no effect, 100 complete control), read-out: Plant response rating, Foxtail, Giant
Procedure, shortened: as §1

[4] = system: pigweed (Amaranthus retroflexus); experiment: Test A preemergence; details: Amaranthus retroflexus, pre-emergence, 240 h, Preemergence; for pest or weed control at 31 g/ha: 31 g ai/ha, 0 to 100 scale where 0 is no effect and 100 is complete control, read-out: Pigweed plant response rating; for pest or weed control at 125 g/ha: 125 g ai/ha, 0 to 100 scale (0 no effect, 100 complete control), read-out: Plant response rating, Pigweed
[5] = system: ragweed (common ragweed, Ambrosia elatior); experiment: Test A preemergence; details: Ambrosia artemisiifolia, pre-emergence, 240 h, Preemergence; for pest or weed control at 31 g/ha: 31 g ai/ha, 0 to 100 scale where 0 is no effect and 100 is complete control, read-out: Ragweed plant response rating; for pest or weed control at 125 g/ha: 125 g ai/ha, 0 to 100 scale (0 no effect, 100 complete control), read-out: Plant response rating, Ragweed
Procedure, shortened: as §1

[6] = system: ryegrass, Italian (Italian ryegrass, Lolium multiflorum); experiment: Test A preemergence; details: Lolium multiflorum, pre-emergence, 240 h, Preemergence; for pest or weed control at 31 g/ha: 31 g ai/ha, 0 to 100 scale where 0 is no effect and 100 is complete control, read-out: Ryegrass, Italian plant response rating; for pest or weed control at 125 g/ha: 125 g ai/ha, 0 to 100 scale (0 no effect, 100 complete control), read-out: Plant response rating, Ryegrass, Italian
Procedure, shortened: as §1

[7] = system: barnyardgrass (Echinochloa crus-galli); experiment: Test A postemergence; details: Echinochloa crus-galli, post-emergence, 240 h, Postemergence; for pest or weed control at 125 g/ha: 125 g ai/ha, visual rating about 10 d after treatment, read-out: Barnyardgrass plant response rating (0 to 100 scale, 0 no effect, 100 complete control); for pest or weed control at 31 g/ha: 31 g ai/ha, 0 is no effect, 100 is complete control, read-out: Barnyardgrass plant response rating (0 to 100 scale)
Procedure, shortened: as §1

Kochia (Kochia scoparia) [8] = experiment: Test A postemergence; details: Bassia scoparia, post-emergence, 240 h, Postemergence, read-out: Kochia plant response rating (0 to 100 scale); for pest or weed control at 125 g/ha: 125 g ai/ha, visual rating about 10 d after treatment; for pest or weed control at 31 g/ha: 31 g ai/ha, 0 is no effect, 100 is complete control
Procedure, shortened: as §1

[9] = system: blackgrass (Alopecurus myosuroides); experiment: Test A postemergence; details: Alopecurus myosuroides, post-emergence, 240 h, Postemergence, read-out: Blackgrass plant response rating (0 to 100 scale); for pest or weed control at 125 g/ha: 125 g ai/ha, visual rating about 10 d after treatment; for pest or weed control at 31 g/ha: 31 g ai/ha, 0 is no effect, 100 is complete control
Procedure, shortened: as §1

[10] = system: giant foxtail (Setaria faberii); experiment: Test A postemergence; details: Setaria faberi, post-emergence, 240 h, Postemergence, read-out: Foxtail, Giant plant response rating (0 to 100 scale); for pest or weed control at 125 g/ha: 125 g ai/ha, visual rating about 10 d after treatment; for pest or weed control at 31 g/ha: 31 g ai/ha, 0 is no effect, 100 is complete control
Procedure, shortened: as §1

[11] = system: wheat (Triticum aestivum); experiment: Test A postemergence; details: Triticum aestivum, post-emergence, 240 h, Postemergence, read-out: Wheat plant response rating (0 to 100 scale); for plant injury at 125 g/ha: 125 g ai/ha, visual rating about 10 d after treatment; for plant injury at 31 g/ha: 31 g ai/ha, 0 is no effect, 100 is complete control
Procedure, shortened: as §1

[12] = system: Galium (catchweed bedstraw, Galium aparine); experiment: Test A postemergence; details: Galium, post-emergence, 240 h, Postemergence, read-out: Galium plant response rating (0 to 100 scale); for pest or weed control at 125 g/ha: 125 g ai/ha, visual rating about 10 d after treatment; for pest or weed control at 31 g/ha: 31 g ai/ha, 0 is no effect, 100 is complete control
Procedure, shortened: as §1

corn (Zea mays) = experiment: Test A postemergence; details: Zea mays, post-emergence, 240 h, Postemergence, read-out: Corn plant response rating (0 to 100 scale); for plant injury at 125 g/ha: 125 g ai/ha, visual rating about 10 d after treatment; for plant injury at 31 g/ha: 31 g ai/ha, 0 is no effect, 100 is complete control
Procedure, shortened: as §1

[13] = system: pigweed (Amaranthus retroflexus); experiment: Test A postemergence; details: Amaranthus retroflexus, post-emergence, 240 h, Postemergence, read-out: Pigweed plant response rating (0 to 100 scale); for pest or weed control at 125 g/ha: 125 g ai/ha, visual rating about 10 d after treatment; for pest or weed control at 31 g/ha: 31 g ai/ha, 0 is no effect, 100 is complete control
Procedure, shortened: as §1

[14] = system: ragweed (common ragweed, Ambrosia elatior); experiment: Test A postemergence; details: Ambrosia artemisiifolia, post-emergence, 240 h, Postemergence, read-out: Ragweed plant response rating (0 to 100 scale); for pest or weed control at 125 g/ha: 125 g ai/ha, visual rating about 10 d after treatment; for pest or weed control at 31 g/ha: 31 g ai/ha, 0 is no effect, 100 is complete control
Procedure, shortened: as §1

[15] = system: ryegrass, Italian (Italian ryegrass, Lolium multiflorum); experiment: Test A postemergence; details: Lolium multiflorum, post-emergence, 240 h, Postemergence, read-out: Ryegrass, Italian plant response rating (0 to 100 scale); for pest or weed control at 125 g/ha: 125 g ai/ha, visual rating about 10 d after treatment; for pest or weed control at 31 g/ha: 31 g ai/ha, 0 is no effect, 100 is complete control
Procedure, shortened: as §1

[16] = system: barnyardgrass (Echinochloa crus-galli); experiment: Test B flooded paddy test; details: Echinochloa crus-galli, 360 h, Flood, 250 g ai/ha; visually evaluated after 13 to 15 d; read-out: Plant response rating, Barnyardgrass (0 to 100 scale where 0 is no effect and 100 is complete control)
Procedure, shortened: (§2)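 Greenhouse paddy pots with 2-leaf stage plants received compound by direct addition to floodwater 3 cm deep, kept at that level. Scored visually at 13–15 d versus controls (0 no effect; 100 complete control).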

rice (Oryra sativa) = experiment: Test B flooded paddy test; details: Oryza sativa, 360 h, Flood, 250 g ai/ha; visually evaluated after 13 to 15 d; read-out: Plant response rating, Rice (0 to 100 scale where 0 is no effect and 100 is complete control)
Procedure, shortened: as §2

[17] = system: sedge, umbrella (small-flower umbrella sedge, Cyperus difformis); experiment: Test B flooded paddy test; details: Cyperus difformis, 360 h, Flood, 250 g ai/ha; visually evaluated after 13 to 15 d; read-out: Plant response rating, Sedge, Umbrella (0 to 100 scale where 0 is no effect and 100 is complete control)
Procedure, shortened: as §2

[18] = system: ducksalad (Heteranthera limosa); experiment: Test B flooded paddy test; details: Heteranthera limosa, 360 h, Flood, 250 g ai/ha; visually evaluated after 13 to 15 d; read-out: Plant response rating, Ducksalad (0 to 100 scale where 0 is no effect and 100 is complete control)
Procedure, shortened: as §2

Structure (SMILES) | pest or weed control at 31 g/ha [1] | pest or weed control at 125 g/ha [1] | pest or weed control at 31 g/ha (Kochia (Kochia scoparia) [2]) | pest or weed control at 125 g/ha (Kochia (Kochia scoparia) [2]) | pest or weed control at 31 g/ha [3] | pest or weed control at 125 g/ha [3] | pest or weed control at 31 g/ha [4] | pest or weed control at 125 g/ha [4] | pest or weed control at 31 g/ha [5] | pest or weed control at 125 g/ha [5] | pest or weed control at 31 g/ha [6] | pest or weed control at 125 g/ha [6] | pest or weed control at 125 g/ha [7] | pest or weed control at 31 g/ha [7] | pest or weed control at 125 g/ha (Kochia (Kochia scoparia) [8]) | pest or weed control at 31 g/ha (Kochia (Kochia scoparia) [8]) | pest or weed control at 125 g/ha [9] | pest or weed control at 31 g/ha [9] | pest or weed control at 125 g/ha [10] | pest or weed control at 31 g/ha [10] | further results
Cc1cccc([C@H]2CN(C)C(=O)[C@@H]2C(=O)Nc2cnccc2C)c1 [Compound 1344] | 0% | 0% | 0% | 0% | 0% | 0% | 0% | 0% | 0% | 0% | 0% | 0% | 0% | 0% | 0% | 0% | 0% | 0% | 0% | 0% | plant injury at 125 g/ha [11]: 0%; plant injury at 31 g/ha [11]: 0%; pest or weed control at 125 g/ha [12]: 0%; pest or weed control at 31 g/ha [12]: 0%; plant injury at 125 g/ha (corn (Zea mays)): 0%; plant injury at 31 g/ha (corn (Zea mays)): 0%; pest or weed control at 125 g/ha [13]: 0%; pest or weed control at 31 g/ha [13]: 0%; pest or weed control at 125 g/ha [14]: 0%; pest or weed control at 31 g/ha [14]: 0%; pest or weed control at 125 g/ha [15]: 0%; pest or weed control at 31 g/ha [15]: 0%; pest or weed control at 250 g/ha [16]: 0%; pest or weed control at 250 g/ha (rice (Oryra sativa)): 0%; pest or weed control at 250 g/ha [17]: 0%; pest or weed control at 250 g/ha [18]: 0%
CN1C[C@H](c2cccc(C(F)(F)F)c2)[C@@H](C(=O)Nc2ccc(F)nc2F)C1=O [Compound 1348] | 90% | 100% | 0% | 80% | 100% | 100% | 0% | 100% | 80% | 20% | 20% | 60% | 90% | 90% | 50% | 0% | 50% | 50% | 90% | 90% | plant injury at 125 g/ha [11]: 60%; plant injury at 31 g/ha [11]: 40%; pest or weed control at 125 g/ha [12]: 70%; pest or weed control at 31 g/ha [12]: 50%; plant injury at 125 g/ha (corn (Zea mays)): 80%; plant injury at 31 g/ha (corn (Zea mays)): 50%; pest or weed control at 125 g/ha [13]: 0%; pest or weed control at 31 g/ha [13]: 0%; pest or weed control at 125 g/ha [14]: 20%; pest or weed control at 31 g/ha [14]: 0%; pest or weed control at 125 g/ha [15]: 30%; pest or weed control at 31 g/ha [15]: 20%; pest or weed control at 250 g/ha [16]: 90%; pest or weed control at 250 g/ha (rice (Oryra sativa)): 0%; pest or weed control at 250 g/ha [17]: 0%; pest or weed control at 250 g/ha [18]: 98%
